# From patent US20080051429A1, “USE OF 4-AMINO-PIPERIDINES FOR TREATING SLEEP DISORDERS” (priority 2006, published 2008)
# Test system: healthy volunteers
# Test: Polysomnography (PSG) sleep study, double-blind, placebo-controlled
# Type: in vivo, human
# Protocol: A double-blind, placebo-controlled study involving 45 healthy volunteers ranging in age from 40 to 64 was conducted. […] All subjects underwent a two-night screening and baseline PSG evaluation. Additional PSG measurements were performed on the evening of study days 1 and 13. The subjects also completed a Continuous Performance Test (CPT) to assess the potential impact on daytime functioning. […] Of the 45 subjects, 20 of them also underwent a positron emission tomography (PET) study to measure 5-HT2A brain receptor occupancy.
# During an assessment period, participants stayed overnight in the clinic for […] from Day −1 to Day 2 and one night from Day 13 to Day 14. Participants underwent a one-night PSG evaluation on the evening of Day 1, following the first dose of treatment and a final one-night PSG evaluation on the evening of Day 13. Between Day 3 and Day 12, participants were at home.
# Polysomnographic recordings were performed from 23:00 to 07:00 on the following day.
# The drug was dispensed as a solution (in vials) per os (p.o.), in a double-blind fashion as determined by the randomization schedule. The content of the vials was completely consumed followed by the consumption of one vial of water.
# Data Analysis: A multivariate analyses of variance (MANOVA) with 5 clusters of sleep parameters as dependent variables (sleep continuity architecture and profile parameters for the visual analysis, and NREM and REM parameters for the spectral power analysis as shown in Table 1) was conducted initially. Change from baseline to the last day of drug administration was assessed by an analysis of covariance with repeated measures (ANCOVA®), with the baseline variables as covariates, to detect group differences (drug at each dose versus placebo) in the PSG sleep findings. For each ANCOVA, two main effects (Treatment, 4 levels, and Study Day, 2 levels) and their interaction were analyzed. Drug to placebo contrasts were calculated as a whole (Day 1 and Day 13 combined) as well as separately for each Study Day. Change from baseline to the last day of drug administration, by group, on the results of the CPT was also analyzed. Additional pharmacodynamic analysis, including the electrographic results obtained on Study Day 1, was performed. SAS® Version 8.2 was used for non-pharmacokinetic parameters and WinNonLin V4.0 was used to compute all pharmacokinetic parameters.
smiles,measurement,setting,value
CC(C)COc1ccc(CNC(=O)N(Cc2ccc(F)cc2)C2CCN(C)CC2)cc1 [N-(1-methylpiperidin-4-yl)-N-(4-fluorophenylmethyl)-N′-(4-(2-methylpropyloxy)phenylmethyl)carbamide],Change in Slow Wave Sleep From Baseline,"1 mg, Day 1",6.4 min
same,"Change in Slow Wave Sleep From Baseline, Percentage","1 mg, Day 1",10%
same,Duration (min) of wake after sleep onset,"1 mg, Day 1",47.67 min
same,Number of awakenings after sleep onset,"1 mg, Day 1",20.22
same,SWS duration,"1 mg, Day 1",69.78 min
same,Change in Slow Wave Sleep From Baseline,"1 mg, Day 13",5.4 min
same,"Change in Slow Wave Sleep From Baseline, Percentage","1 mg, Day 13",9%
same,Duration (min) of wake after sleep onset,"1 mg, Day 13",40.06 min
same,Number of awakenings after sleep onset,"1 mg, Day 13",20.78
same,SWS duration,"1 mg, Day 13",68.78 min
same,NREM sleep %,"2.5 mg, C","↑ (↑, <.05)"
same,NREM sleep duration,"2.5 mg, C","↑ (↑, <.05)"
same,SWS 2nd third,"2.5 mg, C","↑↑ (↑↑, <.01)"
same,SWS %,"2.5 mg, C","↑↑ (↑↑, <.01)"
same,Stage 3%,"2.5 mg, C","↑ (↑, <.05)"
same,Stage 3 duration,"2.5 mg, C","↑ (↑, <.05)"
same,Stage 4%,"2.5 mg, C","↑ (↑, <.05)"
same,Stage 4 duration,"2.5 mg, C","↑ (↑, <.05)"
same,SWS 2nd third,"2.5 mg, D1","↑ (↑, <.05)"
same,SWS %,"2.5 mg, D1","↑ (↑, <.05)"
same,Stage 3%,"2.5 mg, D1","↑ (↑, <.05)"
same,Stage 3 duration,"2.5 mg, D1","↑ (↑, <.05)"
same,NREM sleep %,"2.5 mg, D13","↑↑ (↑↑, <.01)"
same,NREM sleep duration,"2.5 mg, D13","↑ (↑, <.05)"
same,Change in Slow Wave Sleep From Baseline,"2.5 mg, Day 1",21.8 min
same,"Change in Slow Wave Sleep From Baseline, Percentage","2.5 mg, Day 1",40%
same,Duration (min) of wake after sleep onset,"2.5 mg, Day 1",51.00 min
same,Number of awakenings after sleep onset,"2.5 mg, Day 1",21.44
same,SWS duration,"2.5 mg, Day 1",75.83 min
same,Change in Slow Wave Sleep From Baseline,"2.5 mg, Day 13",19.6 min
same,"Change in Slow Wave Sleep From Baseline, Percentage","2.5 mg, Day 13",36%
same,Duration (min) of wake after sleep onset,"2.5 mg, Day 13",30.44 min
same,Number of awakenings after sleep onset,"2.5 mg, Day 13",19.78
same,SWS duration,"2.5 mg, Day 13",73.61 min
same,SWS 1st third,"5 mg, C","↑↑ (↑↑, <.01)"
same,SWS 2nd third,"5 mg, C","↑↑ (↑↑, <.01)"
same,SWS %,"5 mg, C","↑↑ (↑↑, <.01)"
same,Stage 1%,"5 mg, C","↓ (↓, <.05)"
same,Stage 2%,"5 mg, C","↓ (↓, <.05)"
same,Stage 3%,"5 mg, C","↑ (↑, <.05)"
same,Stage 3 duration,"5 mg, C","↑ (↑, <.05)"
same,Stage 4%,"5 mg, C","↑↑ (↑↑, <.01)"
same,Stage 4 duration,"5 mg, C","↑↑ (↑↑, <.01)"
same,SWS 1st third,"5 mg, D1","↑↑ (↑↑, <.01)"
same,SWS %,"5 mg, D1","↑↑ (↑↑, <.01)"
same,Stage 1%,"5 mg, D1","↓ (↓, <.05)"
same,Stage 2%,"5 mg, D1","↓ (↓, <.05)"
same,Stage 3%,"5 mg, D1","↑ (↑, <.05)"
same,Stage 3 duration,"5 mg, D1","↑ (↑, <.05)"
same,Stage 4%,"5 mg, D1","↑↑ (↑↑, <.01)"
same,Stage 4 duration,"5 mg, D1","↑↑ (↑↑, <.01)"
same,SWS 1st third,"5 mg, D13","↑ (↑, <.05)"
same,SWS 2nd third,"5 mg, D13","↑ (↑, <.05)"
same,SWS %,"5 mg, D13","↑↑ (↑↑, <.01)"
same,Stage 4%,"5 mg, D13","↑↑ (↑↑, <.01)"
same,Stage 4 duration,"5 mg, D13","↑↑ (↑↑, <.01)"
same,Change in Slow Wave Sleep From Baseline,"5 mg, Day 1",37.3 min
same,"Change in Slow Wave Sleep From Baseline, Percentage","5 mg, Day 1",65%
same,Duration (min) of wake after sleep onset,"5 mg, Day 1",64.56 min
same,Number of awakenings after sleep onset,"5 mg, Day 1",20.67
same,SWS duration,"5 mg, Day 1",94.89 min
same,Change in Slow Wave Sleep From Baseline,"5 mg, Day 13",41.9 min
same,"Change in Slow Wave Sleep From Baseline, Percentage","5 mg, Day 13",73%
same,Duration (min) of wake after sleep onset,"5 mg, Day 13",43.89 min
same,Number of awakenings after sleep onset,"5 mg, Day 13",21.78
same,SWS duration,"5 mg, Day 13",99.56 min
same,duration and proportion of wake after sleep onset,20 mg,decreased
same,NREM sleep %,"20 mg, C","↑↑ (↑↑, <.01)"
same,NREM sleep duration,"20 mg, C","↑ (↑, <.05)"
same,SWS 1st third,"20 mg, C","↑↑ (↑↑, <.01)"
same,SWS 2nd third,"20 mg, C","↑↑ (↑↑, <.01)"
same,SWS %,"20 mg, C","↑↑ (↑↑, <.01)"
same,Stage 2 duration,"20 mg, C","↓ (↓, <.05)"
same,Stage 3%,"20 mg, C","↑ (↑, <.05)"
same,Stage 3 duration,"20 mg, C","↑ (↑, <.05)"
same,Stage 4%,"20 mg, C","↑↑ (↑↑, <.01)"
same,Stage 4 duration,"20 mg, C","↑↑ (↑↑, <.01)"
same,SWS 2nd third,"20 mg, D1","↑↑ (↑↑, <.01)"
same,SWS %,"20 mg, D1","↑↑ (↑↑, <.01)"
same,Stage 2 duration,"20 mg, D1","↓ (↓, <.05)"
same,Stage 4%,"20 mg, D1","↑↑ (↑↑, <.01)"
same,Stage 4 duration,"20 mg, D1","↑↑ (↑↑, <.01)"
same,NREM sleep %,"20 mg, D13","↑↑ (↑↑, <.01)"
same,SWS 2nd third,"20 mg, D13","↑↑ (↑↑, <.01)"
same,SWS %,"20 mg, D13","↑↑ (↑↑, <.01)"
same,Stage 4%,"20 mg, D13","↑↑ (↑↑, <.01)"
same,Stage 4 duration,"20 mg, D13","↑↑ (↑↑, <.01)"
same,Change in Slow Wave Sleep From Baseline,"20 mg, Day 1",46.0 min
same,"Change in Slow Wave Sleep From Baseline, Percentage","20 mg, Day 1",55%
same,Duration (min) of wake after sleep onset,"20 mg, Day 1",33.44 min
same,Number of awakenings after sleep onset,"20 mg, Day 1",20.89
same,SWS duration,"20 mg, Day 1",129.94 min
same,Change in Slow Wave Sleep From Baseline,"20 mg, Day 13",39.0 min
same,"Change in Slow Wave Sleep From Baseline, Percentage","20 mg, Day 13",46%
same,Duration (min) of wake after sleep onset,"20 mg, Day 13",29.89 min
same,Number of awakenings after sleep onset,"20 mg, Day 13",18.89
same,SWS duration,"20 mg, Day 13",122.94 min
same,"REM sleep duration, proportion of REM sleep, REM sleep latency, REM activity or REM density",in words,no effect
same,latency to sleep onset,in words,did not alter
same,"number of awakenings after sleep onset, drug to placebo contrasts","the 4 doses, most significant in 2.5 mg and 5 mg groups",significantly decreased
